Measured values: patent US12214039B2, “Systems and methods for treatments of an eye with a photosensitizer” (Avedro, Inc., priority 2015, dated 2025)
Entries after “also recorded” stand apart in the source; their conditions may differ.

Assays:
[1] = single surfactant; cited from earlier work
[2] = tested on: pig eyes with intact epithelium; assay: Relative fluorescence (F/Fo) of cross-linked corneal flaps, surfactants in riboflavin solution (Study 4)
Method: Pig eyes shipped overnight on ice from an abattoir (SiouxPreme, Sioux City, IA) were rinsed in saline. The eyes with intact epithelium were soaked with one of the test solutions below for 20 minutes in an incubator set at 37° C. by using a rubber ring to hold the solution on top.
For a Group A of the pig eyes, the following riboflavin formulations were used: • (a1) 0.25% riboflavin solution containing BAC (PARACEL™, Avedro, Inc., Waltham, MA); • (a2) 0.1% w.v. riboflavin solution containing saline (PHOTREXA ZD™ Avedro, Inc., Waltham, MA) with added riboflavin to match the riboflavin content (0.25%) in solution (a1); • (a3) solution (a2) with 1% Polidocanol; • (a4) solution (a2) with 5% Polidocanol; and • (a5) solution (a2) with 10% Polidocanol.
The epitheliums of eyes in Group A were removed with a dull blade after the eyes were soaked in one of the solutions and irradiated pan-corneally on air with a top hat beam (3% root mean square) for 4 minutes with 365-nm light source (UV LED NCSU033B[T]; Nichia Co., Tokushima, Japan) at a chosen irradiance of 30 mW/cm^2 which was measured with a power sensor (model PD-300-UV; Ophir, Inc., Jerusalem, Israel) at the corneal surface. Corneal flaps (approximately 200 μm thick) were excised from the eyes with aid of an Intralase femtosecond laser (Abbot Medical Optics, Santa Ana, CA). The average thickness of the corneal flaps was calculated as a difference between the measurements before and after the excision from the eyes with an ultrasonic Pachymeter (DGH Technology, Exton, PA). The flaps were washed with distilled water and dried in a vacuum until the weight change became less than 10% (Rotary vane vacuum pump RV3 A652-01-903, BOC Edwards, West Sussex, UK). […] Papain digests were diluted 0.5 times with 1×BBBS and fluorescence of the solutions was measured with excitation of 360 nm in a QM-40 Spectrofluorometer (Photon Technology Int., London, Ontario, Canada). The fluorescence of the papain buffer was taken into account by measuring fluorescence in the absence of tissue and subtracting this value from the fluorescence of the samples. […]

[3] = in riboflavin solution, pig eyes

Row | Compound | HLB number [1] | corrosion and damage to the epithelium ([2]; corneal epithelium) | enhancing permeability and generating cross-linking activity, compared with other surfactants [2, 3] | enhancing permeability in the epithelium and generating cross-linking activity, compared with BAC [2, 3]
1 | CCCCCCCCCc1ccc(OCCOCCOCCOCCOCCOCCOCCOCCOCCO)cc1 [IGEPAL CO-630] | 13 |  |  | 
2 | Polyoxyethylene (9) lauryl ether [Polidocanol] |  | do not cause damage to the epithelium; also recorded: less corrosive and damaging to the epithelium than BAC | more effective than many other surfactants | far more effective and efficient than BAC
